Test results from patent US11331299B2, “Medicinal use of serrulatane diterpenes” (The University of Sydney, priority 2016, dated 2022).
Read-outs that look alike come from different tables or passages of the source. Values belong to the molecule of their own block, whether it stands above or below them.

Tests used:
[1] = biological target: T1, Sirtuin 7 (h) (Homo sapiens, UniProt Q9NRC8); conditions: reference compound; fluorogenic HDAC 25 μM; 60 min/37° C.; cited from earlier work
T1 sequence (Q9NRC8 1-400): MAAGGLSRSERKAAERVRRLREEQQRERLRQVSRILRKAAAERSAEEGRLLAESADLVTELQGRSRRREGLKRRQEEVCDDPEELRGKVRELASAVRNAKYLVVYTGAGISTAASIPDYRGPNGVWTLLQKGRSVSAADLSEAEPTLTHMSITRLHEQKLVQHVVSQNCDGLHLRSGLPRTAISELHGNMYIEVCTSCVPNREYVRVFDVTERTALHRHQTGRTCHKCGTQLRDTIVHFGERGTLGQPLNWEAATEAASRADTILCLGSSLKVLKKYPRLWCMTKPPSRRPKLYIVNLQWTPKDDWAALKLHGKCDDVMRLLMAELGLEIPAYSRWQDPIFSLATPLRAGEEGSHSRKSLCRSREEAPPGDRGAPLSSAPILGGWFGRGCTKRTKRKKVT

[2] = biological target: T1, Sirtuin 7 (h); assay: Epigenetic enzyme assay, Sirtuins; format: biochemical; conditions: Table 10; read-out: Reference IC50
[3] = biological target: T2, ASH1L (h) bromodomain (Homo sapiens, UniProt Q9NR48); assay: Epigenetic binding assay, Bromodomain
T2 construct: ASH1L (h) bromodomain

[4] = biological target: T3, KAT2A (GCN5L2) (h) bromodomain (Homo sapiens, UniProt Q92830); conditions: ligand biotin-H4 tetra acetyl Lys 5/8/12/16 30 nM; 15 min/RT; AlphaScreen; read-out: Reference IC50; cited from earlier work
T3 construct: Bromodomain
T3 sequence (Q92830 728-832 limits assumed): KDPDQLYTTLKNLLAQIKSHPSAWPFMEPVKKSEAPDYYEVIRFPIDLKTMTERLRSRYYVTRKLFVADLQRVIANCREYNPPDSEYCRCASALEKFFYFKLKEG

[5] = biological target: T4, ATAD2A (h) bromodomain (Homo sapiens, UniProt Q6PL18); assay: Epigenetic binding assay, Bromodomain; conditions: Table 4; read-out: Reference IC50
T4 construct: Bromodomain
T4 sequence (Q6PL18 980-1092 limits assumed): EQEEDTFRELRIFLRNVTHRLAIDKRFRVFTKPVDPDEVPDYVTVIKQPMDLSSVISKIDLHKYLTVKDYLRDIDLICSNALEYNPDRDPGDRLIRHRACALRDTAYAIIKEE

[6] = biological target: T5, PCAF (h) bromodomain (Homo sapiens, UniProt Q92831); assay: Epigenetic binding assay, Bromodomain; conditions: Table 4; read-out: Reference IC50
T5 construct: Bromodomain
T5 sequence (Q92831 723-827 limits assumed): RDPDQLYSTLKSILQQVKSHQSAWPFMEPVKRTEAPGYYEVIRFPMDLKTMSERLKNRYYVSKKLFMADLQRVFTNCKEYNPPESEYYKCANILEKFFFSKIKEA

[7] = biological target: T4, ATAD2A (h) bromodomain; conditions: ligand biotin-H4 tetra acetyl Lys 5/8/12/16 100 nM; 30 min/RT; AlphaScreen; read-out: Reference IC50; cited from earlier work
[8] = biological target: T5, PCAF (h) bromodomain; conditions: ligand biotin-H4 tetra acetyl Lys 5/8/12/16 100 nM; 30 min/RT; AlphaScreen; read-out: Reference IC50; cited from earlier work
[9] = biological target: T3, KAT2A (GCN5L2) (h) bromodomain; assay: Epigenetic binding assay, Bromodomain; conditions: Table 4; read-out: Reference IC50
[10] = biological target: T2, ASH1L (h) bromodomain; conditions: ligand biotin-H4 di acetyl Lys 5/8 75 nM; 30 min/RT; AlphaScreen; read-out: Reference IC50; cited from earlier work
[11] = biological target: T6, USP 7 (h) (Homo sapiens, UniProt Q93009); assay: Epigenetic enzyme assay, Ubiquitin modifying enzymes; format: biochemical; conditions: Table 10; read-out: Reference IC50
[12] = biological target: T6, USP 7 (h); conditions: reference compound; LanthaScreen DUB substrate 10 nM, 60 min/RT; cited from earlier work
[13] = biological target: T7, BAP1 (h) (Homo sapiens, UniProt Q92560); conditions: reference compound; LanthaScreen DUB substrate 20 nM, 180 min/RT; cited from earlier work
T7 sequence (Q92560 1-729): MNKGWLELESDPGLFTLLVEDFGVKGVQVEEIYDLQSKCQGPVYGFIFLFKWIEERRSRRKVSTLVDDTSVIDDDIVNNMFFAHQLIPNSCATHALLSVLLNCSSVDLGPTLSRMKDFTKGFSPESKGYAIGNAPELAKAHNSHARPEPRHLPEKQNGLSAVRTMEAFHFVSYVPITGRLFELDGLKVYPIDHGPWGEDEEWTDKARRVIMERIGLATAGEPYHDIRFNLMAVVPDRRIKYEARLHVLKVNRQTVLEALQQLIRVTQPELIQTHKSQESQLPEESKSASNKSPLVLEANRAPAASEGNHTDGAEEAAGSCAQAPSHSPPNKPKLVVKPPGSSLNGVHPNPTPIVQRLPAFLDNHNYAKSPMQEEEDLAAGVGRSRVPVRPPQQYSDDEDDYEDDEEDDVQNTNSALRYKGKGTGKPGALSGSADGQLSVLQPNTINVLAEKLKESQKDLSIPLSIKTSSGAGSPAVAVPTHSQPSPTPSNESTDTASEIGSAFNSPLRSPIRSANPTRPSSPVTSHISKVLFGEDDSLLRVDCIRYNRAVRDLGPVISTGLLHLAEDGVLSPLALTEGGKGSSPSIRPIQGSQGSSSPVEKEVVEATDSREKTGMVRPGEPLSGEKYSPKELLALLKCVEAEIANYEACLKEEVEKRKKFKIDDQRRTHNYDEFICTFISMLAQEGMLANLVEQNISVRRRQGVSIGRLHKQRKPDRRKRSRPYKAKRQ

[14] = biological target: T7, BAP1 (h); assay: Epigenetic enzyme assay, Ubiquitin modifying enzymes; format: biochemical; conditions: Table 10; read-out: Reference IC50
[15] = biological target: T8, USP 14 (h) (Homo sapiens, UniProt P54578); assay: as above; format: biochemical; conditions: Table 10; read-out: Reference IC50
[16] = biological target: T9, USP 21 (h) (Homo sapiens, UniProt Q9UK80); assay: as above; format: biochemical; conditions: Table 10; read-out: Reference IC50
T9 sequence (Q9UK80 1-565): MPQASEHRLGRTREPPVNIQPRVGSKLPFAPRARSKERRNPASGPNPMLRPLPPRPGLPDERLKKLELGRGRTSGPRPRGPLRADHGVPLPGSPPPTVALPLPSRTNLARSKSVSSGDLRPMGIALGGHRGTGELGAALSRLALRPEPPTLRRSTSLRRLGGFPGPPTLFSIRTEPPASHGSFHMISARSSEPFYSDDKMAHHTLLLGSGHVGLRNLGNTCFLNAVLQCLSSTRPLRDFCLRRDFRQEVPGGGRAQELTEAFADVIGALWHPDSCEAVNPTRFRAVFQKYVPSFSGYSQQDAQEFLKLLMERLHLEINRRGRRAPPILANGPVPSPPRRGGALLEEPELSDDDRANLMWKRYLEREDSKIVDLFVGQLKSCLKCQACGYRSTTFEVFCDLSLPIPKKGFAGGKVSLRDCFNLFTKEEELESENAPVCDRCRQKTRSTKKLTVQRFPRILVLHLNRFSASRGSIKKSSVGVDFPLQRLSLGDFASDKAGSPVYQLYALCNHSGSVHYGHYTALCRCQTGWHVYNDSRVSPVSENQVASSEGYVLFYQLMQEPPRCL

[17] = biological target: USP 10 (h) (Homo sapiens, UniProt Q14694); conditions: reference compound; LanthaScreen DUB substrate 10 nM, 60 min/22° C.; cited from earlier work
[18] = biological target: T9, USP 21 (h); conditions: reference compound; LanthaScreen DUB substrate 10 nM, 15 min/RT; cited from earlier work
[19] = biological target: T8, USP 14 (h); conditions: reference compound; LanthaScreen DUB substrate 10 nM, 240 min/RT; cited from earlier work

T8 sequence (P54578 whole entry): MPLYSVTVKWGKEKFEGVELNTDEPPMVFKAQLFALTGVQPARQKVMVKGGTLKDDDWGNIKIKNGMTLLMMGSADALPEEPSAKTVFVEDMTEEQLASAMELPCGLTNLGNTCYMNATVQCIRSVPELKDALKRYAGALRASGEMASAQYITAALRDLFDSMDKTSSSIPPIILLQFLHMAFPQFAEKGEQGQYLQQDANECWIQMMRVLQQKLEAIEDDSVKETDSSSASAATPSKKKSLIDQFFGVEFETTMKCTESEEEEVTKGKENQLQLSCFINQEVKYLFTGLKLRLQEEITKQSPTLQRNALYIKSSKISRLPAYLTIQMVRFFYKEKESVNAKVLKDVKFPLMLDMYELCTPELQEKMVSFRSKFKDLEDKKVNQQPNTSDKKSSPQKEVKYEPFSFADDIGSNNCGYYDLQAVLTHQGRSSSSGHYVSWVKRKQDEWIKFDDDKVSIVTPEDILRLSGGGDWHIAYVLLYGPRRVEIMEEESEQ
T6 sequence (Q93009 whole entry): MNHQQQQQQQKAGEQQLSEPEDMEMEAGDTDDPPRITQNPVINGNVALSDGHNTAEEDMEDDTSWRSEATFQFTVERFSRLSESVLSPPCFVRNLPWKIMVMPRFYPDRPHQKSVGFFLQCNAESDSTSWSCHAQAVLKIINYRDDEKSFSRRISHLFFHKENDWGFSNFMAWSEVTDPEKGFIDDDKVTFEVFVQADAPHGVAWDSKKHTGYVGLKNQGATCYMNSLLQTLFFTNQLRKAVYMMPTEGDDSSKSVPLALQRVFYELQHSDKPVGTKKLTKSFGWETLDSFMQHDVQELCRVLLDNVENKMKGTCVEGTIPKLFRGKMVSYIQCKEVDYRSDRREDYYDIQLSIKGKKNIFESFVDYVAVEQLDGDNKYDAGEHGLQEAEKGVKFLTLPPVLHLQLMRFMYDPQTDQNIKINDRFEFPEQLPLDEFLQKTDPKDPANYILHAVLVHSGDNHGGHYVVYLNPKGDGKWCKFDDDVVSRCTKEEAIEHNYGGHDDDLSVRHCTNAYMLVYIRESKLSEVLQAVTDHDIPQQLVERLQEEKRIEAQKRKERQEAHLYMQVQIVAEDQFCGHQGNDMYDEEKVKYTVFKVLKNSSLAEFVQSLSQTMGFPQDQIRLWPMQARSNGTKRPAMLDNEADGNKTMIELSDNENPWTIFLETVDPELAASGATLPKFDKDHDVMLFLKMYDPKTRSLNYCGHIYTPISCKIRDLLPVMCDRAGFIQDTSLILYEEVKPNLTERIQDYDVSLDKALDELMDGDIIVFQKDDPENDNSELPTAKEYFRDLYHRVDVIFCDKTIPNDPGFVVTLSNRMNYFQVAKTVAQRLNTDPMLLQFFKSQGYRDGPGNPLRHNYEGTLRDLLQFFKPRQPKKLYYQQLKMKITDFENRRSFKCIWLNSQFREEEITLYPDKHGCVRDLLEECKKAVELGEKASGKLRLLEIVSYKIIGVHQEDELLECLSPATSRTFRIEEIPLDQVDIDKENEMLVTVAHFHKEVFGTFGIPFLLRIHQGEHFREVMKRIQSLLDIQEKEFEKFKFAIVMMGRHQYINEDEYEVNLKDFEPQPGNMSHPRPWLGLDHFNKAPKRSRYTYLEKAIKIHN
Chain of USP 10 (h) (Q14694 whole entry): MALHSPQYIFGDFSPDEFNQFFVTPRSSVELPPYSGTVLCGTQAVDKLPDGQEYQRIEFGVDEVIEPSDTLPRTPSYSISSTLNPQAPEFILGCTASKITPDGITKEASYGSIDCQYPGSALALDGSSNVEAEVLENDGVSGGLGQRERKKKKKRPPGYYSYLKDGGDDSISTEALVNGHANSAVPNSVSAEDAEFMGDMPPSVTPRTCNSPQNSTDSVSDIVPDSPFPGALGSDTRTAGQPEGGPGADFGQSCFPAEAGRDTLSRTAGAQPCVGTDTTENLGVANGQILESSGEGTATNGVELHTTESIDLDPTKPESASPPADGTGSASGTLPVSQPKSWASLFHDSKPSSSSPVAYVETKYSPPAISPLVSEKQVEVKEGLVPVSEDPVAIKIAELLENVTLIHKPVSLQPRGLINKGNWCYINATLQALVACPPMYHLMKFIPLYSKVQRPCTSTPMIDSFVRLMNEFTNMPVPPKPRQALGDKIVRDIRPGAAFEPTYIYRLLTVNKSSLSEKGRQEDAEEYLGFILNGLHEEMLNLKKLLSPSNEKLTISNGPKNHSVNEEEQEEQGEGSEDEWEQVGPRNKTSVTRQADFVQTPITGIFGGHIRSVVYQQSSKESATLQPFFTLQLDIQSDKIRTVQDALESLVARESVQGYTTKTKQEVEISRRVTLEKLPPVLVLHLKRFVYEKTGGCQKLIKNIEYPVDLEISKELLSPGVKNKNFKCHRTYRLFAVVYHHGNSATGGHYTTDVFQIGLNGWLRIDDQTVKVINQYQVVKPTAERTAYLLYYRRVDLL

Molecule: O=C1c2ccccc2C(=O)c2c(NCCc3ccc(O)cc3)ccc(NCCc3ccc(O)cc3)c21 [JFD00244, reference compound]
IC50 [1]: 1300 µM | IC50 [2]: 1300 µM

Molecule: Cc1sc2c(c1C)C(c1ccc(Cl)cc1)=N[C@@H](CC(=O)OC(C)(C)C)c1nnc(C)n1-2 [JQ-1, reference compound]
IC50 ([3]; Table 4, read-out: Reference IC50): 13.8 µM | IC50 ([3]; Table 9, inhibition/concentration-response curve, read-out: IC50): 8.7 µM | IC50 [4]: 45 µM | IC50 [5]: 70 µM | IC50 [6]: 12 µM | IC50 [7]: 70 µM | IC50 [8]: 12 µM | IC50 [9]: 45 µM | IC50 [10]: 13.8 µM

IC50 [11]: 0.11 µM | IC50 [14]: 0.23 µM | IC50 [15]: 0.004 µM | IC50 [16]: 0.17 µM
Molecule: Ubiquitin Aldehyde
IC50 [12]: 0.11 µM | IC50 [13]: 0.23 µM | IC50 [17]: 0.23 µM | IC50 [18]: 0.17 µM | IC50 [19]: 0.004 µM
